The values below come from ChEMBL document CHEMBL5465560, “Selectivity Literature for EUbOPEN Chemogenomic Library” (2024).

Experiment [1] addresses Serine/threonine-protein kinase MARK1 (Homo sapiens) (UniProt Q9P0L2). The experiment can be described thus: Selectivity interaction (Kinase panel (Z-LYTE Assay)) EUB0001632a MARK1. Conditions: at 10 µM.
Experiment [2] addresses T1, Serine/threonine-protein kinase Chk1 (Homo sapiens) (UniProt O14757).
T1 sequence (whole entry): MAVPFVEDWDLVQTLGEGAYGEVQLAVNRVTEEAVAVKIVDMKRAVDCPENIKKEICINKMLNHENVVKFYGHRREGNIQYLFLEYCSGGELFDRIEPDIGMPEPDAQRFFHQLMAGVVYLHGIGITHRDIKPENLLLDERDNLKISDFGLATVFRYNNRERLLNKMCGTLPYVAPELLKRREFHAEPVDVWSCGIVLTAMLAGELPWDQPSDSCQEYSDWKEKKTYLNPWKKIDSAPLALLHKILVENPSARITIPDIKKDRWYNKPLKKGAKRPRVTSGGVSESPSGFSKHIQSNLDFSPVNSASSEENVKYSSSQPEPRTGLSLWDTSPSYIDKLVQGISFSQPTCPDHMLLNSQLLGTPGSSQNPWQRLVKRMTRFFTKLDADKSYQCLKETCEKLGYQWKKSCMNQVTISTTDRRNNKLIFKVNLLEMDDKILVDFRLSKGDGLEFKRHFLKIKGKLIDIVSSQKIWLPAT
The experiment is described as follows: Selectivity interaction (Kinase panel (KiNativ target engagement assay in Jurkat cells)) EUB0001635a CHEK1. In kind it is cell-based. Conditions: at 1 µM.

In experiment [3] the test system is Epidermal growth factor receptor (Homo sapiens), P00533 [UNDEFINED MUTATION]. Conditions: at 10 µM.
The target of experiment [4] is T2, Serine/threonine-protein kinase ICK (Homo sapiens) (UniProt Q9UPZ9).
T2 sequence (whole entry): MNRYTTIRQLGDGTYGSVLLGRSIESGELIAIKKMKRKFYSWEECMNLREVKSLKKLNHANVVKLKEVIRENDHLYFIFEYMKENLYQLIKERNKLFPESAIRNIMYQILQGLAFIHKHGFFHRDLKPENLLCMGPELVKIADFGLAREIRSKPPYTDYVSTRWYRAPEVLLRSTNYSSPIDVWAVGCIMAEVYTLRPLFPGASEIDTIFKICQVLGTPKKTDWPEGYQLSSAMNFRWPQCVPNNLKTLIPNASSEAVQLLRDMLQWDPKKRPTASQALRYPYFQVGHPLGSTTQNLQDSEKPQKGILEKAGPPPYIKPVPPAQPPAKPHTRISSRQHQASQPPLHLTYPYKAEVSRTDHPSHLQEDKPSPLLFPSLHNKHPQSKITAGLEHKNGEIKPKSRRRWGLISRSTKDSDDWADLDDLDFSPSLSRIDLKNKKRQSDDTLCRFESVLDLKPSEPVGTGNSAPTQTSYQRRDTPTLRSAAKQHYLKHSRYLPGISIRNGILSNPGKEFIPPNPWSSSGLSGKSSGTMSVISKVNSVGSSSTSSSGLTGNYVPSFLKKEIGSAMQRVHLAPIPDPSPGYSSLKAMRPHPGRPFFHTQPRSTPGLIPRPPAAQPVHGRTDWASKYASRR
The experiment can be described thus: Selectivity interaction (KinomeScan (DiscoverX)) EUB0000666a ICK. Conditions: at 10 µM.

Experiment [5] deals with Casein kinase II subunit alpha' (Homo sapiens) (UniProt P19784). The experiment is described as follows: Selectivity interaction (KinomeScan (DiscoverX)) EUB0000666a CSNK2A2. Conditions: at 10 µM.
Casein kinase II subunit alpha' (Homo sapiens), sequence (P19784 whole entry, looked up): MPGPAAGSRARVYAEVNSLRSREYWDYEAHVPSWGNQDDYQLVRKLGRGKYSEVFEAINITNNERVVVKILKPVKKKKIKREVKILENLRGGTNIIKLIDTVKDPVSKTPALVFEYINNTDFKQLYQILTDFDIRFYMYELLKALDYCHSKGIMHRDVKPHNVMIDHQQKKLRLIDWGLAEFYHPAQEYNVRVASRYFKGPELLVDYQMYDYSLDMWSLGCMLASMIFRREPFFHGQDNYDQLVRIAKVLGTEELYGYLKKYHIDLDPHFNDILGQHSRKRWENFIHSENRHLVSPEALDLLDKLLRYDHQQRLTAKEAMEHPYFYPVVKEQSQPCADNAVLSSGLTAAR
Experiment [6] addresses Cyclin-dependent kinase 3 (Homo sapiens) (UniProt Q00526). The experiment can be described thus: Selectivity interaction (KinomeScan (DiscoverX)) EUB0000229b CDK3. Conditions: at 10 µM.
Experiment [7] deals with Tyrosine-protein kinase BTK (Homo sapiens, UniProt Q06187). The experiment can be described thus: Selectivity interaction (KinomeScan (DiscoverX)) EUB0001079a BTK. Conditions: at 1 µM.
Tyrosine-protein kinase BTK, sequence (Q06187 whole entry): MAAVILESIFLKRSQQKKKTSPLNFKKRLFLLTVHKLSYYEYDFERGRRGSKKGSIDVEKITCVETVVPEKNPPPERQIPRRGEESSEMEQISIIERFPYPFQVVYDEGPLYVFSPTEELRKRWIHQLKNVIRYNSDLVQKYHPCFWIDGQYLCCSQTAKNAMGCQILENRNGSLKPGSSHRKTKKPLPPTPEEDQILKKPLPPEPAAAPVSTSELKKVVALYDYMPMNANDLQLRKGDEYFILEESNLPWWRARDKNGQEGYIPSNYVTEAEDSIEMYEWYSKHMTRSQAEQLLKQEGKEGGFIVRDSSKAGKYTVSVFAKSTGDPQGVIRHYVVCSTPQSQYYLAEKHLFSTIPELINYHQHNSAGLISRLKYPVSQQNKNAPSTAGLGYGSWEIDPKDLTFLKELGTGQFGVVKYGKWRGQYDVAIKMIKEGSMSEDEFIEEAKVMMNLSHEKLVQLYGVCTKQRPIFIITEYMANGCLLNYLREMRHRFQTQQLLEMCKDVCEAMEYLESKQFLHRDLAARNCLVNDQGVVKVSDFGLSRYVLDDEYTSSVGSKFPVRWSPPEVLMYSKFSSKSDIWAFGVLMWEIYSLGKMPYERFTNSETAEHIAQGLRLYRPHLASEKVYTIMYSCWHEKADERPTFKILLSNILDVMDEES
The target of experiment [8] is T3, Mitogen-activated protein kinase kinase kinase 7 (Homo sapiens) (UniProt O43318).
T3 sequence (whole entry): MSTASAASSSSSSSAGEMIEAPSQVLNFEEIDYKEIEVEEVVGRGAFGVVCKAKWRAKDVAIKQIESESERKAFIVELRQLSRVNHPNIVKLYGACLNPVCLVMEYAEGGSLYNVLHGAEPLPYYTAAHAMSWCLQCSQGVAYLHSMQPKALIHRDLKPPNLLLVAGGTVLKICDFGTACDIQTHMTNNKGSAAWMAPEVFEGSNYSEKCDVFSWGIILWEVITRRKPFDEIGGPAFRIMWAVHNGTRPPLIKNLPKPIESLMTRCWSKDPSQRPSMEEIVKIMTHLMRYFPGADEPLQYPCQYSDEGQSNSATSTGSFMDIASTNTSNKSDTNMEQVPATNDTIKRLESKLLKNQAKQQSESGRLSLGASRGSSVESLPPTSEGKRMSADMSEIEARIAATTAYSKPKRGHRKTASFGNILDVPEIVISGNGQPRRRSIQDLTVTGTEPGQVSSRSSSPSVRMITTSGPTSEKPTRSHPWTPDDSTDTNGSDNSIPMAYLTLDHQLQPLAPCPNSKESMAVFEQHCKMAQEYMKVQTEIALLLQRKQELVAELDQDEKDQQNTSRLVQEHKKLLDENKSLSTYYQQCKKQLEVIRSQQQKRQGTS
The experiment is described as follows: Selectivity interaction (ActivX KiNativ screen (ex vivo kinase selectivity in human PBMCs)) EUB0001619a MAP3K7. The class given is cell-based. Conditions: PBMC, at 1 µM.

Experiment [9] concerns the target Serine/threonine-protein kinase pim-1 (Homo sapiens, UniProt P11309). The experiment is described as follows: Selectivity interaction (Kinase screening (Nanosyn)) EUB0000604a PIM1.
Experiment [10] has as its target BMP-2-inducible protein kinase (Homo sapiens) (UniProt Q9NSY1). The experiment can be described thus: Selectivity interaction (KinomeScan (DiscoverX)) EUB0000618a BMP2K. Conditions: at 10 µM.
In experiment [11] the target is Maternal embryonic leucine zipper kinase (Homo sapiens) (UniProt Q14680). The experiment can be described thus: Selectivity interaction (KinomeScan (DiscoverX)) EUB0000618a MELK. Conditions: at 10 µM.
Maternal embryonic leucine zipper kinase (Homo sapiens), sequence (Q14680 whole entry, looked up): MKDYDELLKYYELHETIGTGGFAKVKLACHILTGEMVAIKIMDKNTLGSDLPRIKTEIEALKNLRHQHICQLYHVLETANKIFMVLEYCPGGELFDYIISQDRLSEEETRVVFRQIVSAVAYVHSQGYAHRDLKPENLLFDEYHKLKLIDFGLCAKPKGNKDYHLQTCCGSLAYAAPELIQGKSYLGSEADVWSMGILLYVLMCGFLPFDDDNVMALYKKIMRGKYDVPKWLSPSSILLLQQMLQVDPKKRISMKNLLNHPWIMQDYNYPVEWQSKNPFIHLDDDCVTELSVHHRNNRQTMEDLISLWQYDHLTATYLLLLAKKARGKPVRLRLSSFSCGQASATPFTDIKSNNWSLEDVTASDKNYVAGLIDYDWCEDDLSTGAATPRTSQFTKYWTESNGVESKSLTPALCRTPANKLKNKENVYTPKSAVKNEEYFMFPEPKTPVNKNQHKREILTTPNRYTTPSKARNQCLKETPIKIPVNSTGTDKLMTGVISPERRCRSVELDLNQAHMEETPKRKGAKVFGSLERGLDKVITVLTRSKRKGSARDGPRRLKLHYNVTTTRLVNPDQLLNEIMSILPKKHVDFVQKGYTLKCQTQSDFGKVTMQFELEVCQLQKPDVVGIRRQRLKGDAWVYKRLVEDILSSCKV
The target of experiment [12] is Mitogen-activated protein kinase 1 (Homo sapiens, UniProt P28482). The experiment can be described thus: Selectivity interaction (KinomeScan (DiscoverX)) EUB0000618a MAPK1. Conditions: at 10 µM.
Mitogen-activated protein kinase 1, sequence (P28482 whole entry): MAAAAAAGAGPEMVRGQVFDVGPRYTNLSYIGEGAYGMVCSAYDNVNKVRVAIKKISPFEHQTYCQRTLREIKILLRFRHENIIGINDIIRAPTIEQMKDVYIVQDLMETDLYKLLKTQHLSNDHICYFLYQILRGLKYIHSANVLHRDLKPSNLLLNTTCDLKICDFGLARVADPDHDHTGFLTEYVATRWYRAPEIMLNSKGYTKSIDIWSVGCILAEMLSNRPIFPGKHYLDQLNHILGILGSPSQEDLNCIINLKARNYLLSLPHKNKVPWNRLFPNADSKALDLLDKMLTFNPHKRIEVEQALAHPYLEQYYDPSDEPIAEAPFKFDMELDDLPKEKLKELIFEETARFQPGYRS

Serine/threonine-protein kinase pim-1, sequence (P11309 whole entry, looked up): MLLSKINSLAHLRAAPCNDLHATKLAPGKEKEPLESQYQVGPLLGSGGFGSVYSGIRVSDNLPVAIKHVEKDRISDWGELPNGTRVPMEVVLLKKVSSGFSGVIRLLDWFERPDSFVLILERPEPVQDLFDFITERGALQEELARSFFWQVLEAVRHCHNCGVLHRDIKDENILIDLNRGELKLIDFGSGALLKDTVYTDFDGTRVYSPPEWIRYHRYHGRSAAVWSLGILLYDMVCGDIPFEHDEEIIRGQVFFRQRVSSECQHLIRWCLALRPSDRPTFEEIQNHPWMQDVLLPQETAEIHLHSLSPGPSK
Serine/threonine-protein kinase MARK1 (Homo sapiens), sequence (Q9P0L2 whole entry, looked up): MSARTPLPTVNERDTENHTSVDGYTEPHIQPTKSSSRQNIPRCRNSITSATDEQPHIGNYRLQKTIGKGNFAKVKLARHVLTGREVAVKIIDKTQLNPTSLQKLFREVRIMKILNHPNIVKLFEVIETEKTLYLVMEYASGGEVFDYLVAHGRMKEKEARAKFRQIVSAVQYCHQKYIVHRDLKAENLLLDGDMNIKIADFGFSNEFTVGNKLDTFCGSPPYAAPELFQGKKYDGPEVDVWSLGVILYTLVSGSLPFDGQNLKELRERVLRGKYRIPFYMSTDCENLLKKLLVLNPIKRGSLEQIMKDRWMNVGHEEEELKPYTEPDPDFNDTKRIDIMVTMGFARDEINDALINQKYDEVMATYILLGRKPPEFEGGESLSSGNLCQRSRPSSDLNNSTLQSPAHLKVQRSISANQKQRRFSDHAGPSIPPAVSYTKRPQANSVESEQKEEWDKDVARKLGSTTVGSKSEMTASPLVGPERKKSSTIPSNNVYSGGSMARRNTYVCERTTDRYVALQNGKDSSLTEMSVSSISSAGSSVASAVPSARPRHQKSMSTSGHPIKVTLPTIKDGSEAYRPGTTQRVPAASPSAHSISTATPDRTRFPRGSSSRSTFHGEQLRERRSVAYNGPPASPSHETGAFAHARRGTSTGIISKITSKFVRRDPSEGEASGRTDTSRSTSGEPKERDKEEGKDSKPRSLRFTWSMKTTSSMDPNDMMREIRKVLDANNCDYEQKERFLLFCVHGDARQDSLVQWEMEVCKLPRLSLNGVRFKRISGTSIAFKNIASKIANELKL
Cyclin-dependent kinase 3 (Homo sapiens), sequence (Q00526 whole entry, looked up): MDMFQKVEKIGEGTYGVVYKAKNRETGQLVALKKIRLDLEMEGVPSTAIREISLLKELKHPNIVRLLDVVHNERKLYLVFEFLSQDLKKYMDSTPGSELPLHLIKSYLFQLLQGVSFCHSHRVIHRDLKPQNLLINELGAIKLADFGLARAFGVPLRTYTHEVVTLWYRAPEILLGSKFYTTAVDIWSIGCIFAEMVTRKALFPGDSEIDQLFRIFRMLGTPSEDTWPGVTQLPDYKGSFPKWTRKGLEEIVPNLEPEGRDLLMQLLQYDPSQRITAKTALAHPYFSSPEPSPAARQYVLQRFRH
BMP-2-inducible protein kinase (Homo sapiens), sequence (Q9NSY1 whole entry, looked up): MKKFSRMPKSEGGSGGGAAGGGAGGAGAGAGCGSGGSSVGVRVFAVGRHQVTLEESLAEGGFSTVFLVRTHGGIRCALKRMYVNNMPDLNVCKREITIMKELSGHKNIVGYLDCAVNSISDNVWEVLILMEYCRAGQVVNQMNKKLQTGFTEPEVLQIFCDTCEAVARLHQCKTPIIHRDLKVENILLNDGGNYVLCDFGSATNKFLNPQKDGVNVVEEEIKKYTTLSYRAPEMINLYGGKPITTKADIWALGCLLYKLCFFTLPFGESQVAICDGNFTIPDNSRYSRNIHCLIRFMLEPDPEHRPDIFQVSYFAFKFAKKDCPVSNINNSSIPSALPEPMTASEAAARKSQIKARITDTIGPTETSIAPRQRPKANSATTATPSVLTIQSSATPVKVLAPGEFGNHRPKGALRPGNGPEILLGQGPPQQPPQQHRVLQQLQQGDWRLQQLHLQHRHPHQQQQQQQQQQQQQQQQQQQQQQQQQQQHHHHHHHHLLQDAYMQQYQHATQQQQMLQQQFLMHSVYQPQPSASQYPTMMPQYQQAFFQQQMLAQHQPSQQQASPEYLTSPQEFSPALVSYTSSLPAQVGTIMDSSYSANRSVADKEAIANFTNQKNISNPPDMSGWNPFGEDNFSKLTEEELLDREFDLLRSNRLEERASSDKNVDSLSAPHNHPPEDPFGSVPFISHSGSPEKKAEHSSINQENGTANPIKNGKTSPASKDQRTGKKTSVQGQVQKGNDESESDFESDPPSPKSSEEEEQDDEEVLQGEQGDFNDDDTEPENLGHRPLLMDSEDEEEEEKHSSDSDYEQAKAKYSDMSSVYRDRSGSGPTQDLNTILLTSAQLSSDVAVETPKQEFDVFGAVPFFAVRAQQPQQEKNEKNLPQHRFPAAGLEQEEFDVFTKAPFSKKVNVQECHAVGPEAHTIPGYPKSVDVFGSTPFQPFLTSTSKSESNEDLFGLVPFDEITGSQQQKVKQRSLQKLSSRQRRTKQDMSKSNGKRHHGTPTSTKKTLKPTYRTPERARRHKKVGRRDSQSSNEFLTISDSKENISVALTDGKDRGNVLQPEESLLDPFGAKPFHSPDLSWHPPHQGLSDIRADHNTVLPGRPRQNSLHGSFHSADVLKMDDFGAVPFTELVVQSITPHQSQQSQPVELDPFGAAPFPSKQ

In turn, `Cn1cc(-n2cnc3c(NCc4nc5cc(Cl)c(Cl)cc5[nH]4)nc(N4CCOCC4)nc32)cn1` returned a % of control in experiment [1] of 3.94%.
As to `C=CC(=O)Nc1ccc(C(=O)Nc2[nH]nc3c2CN(C(=O)N[C@H](CN(C)C)c2ccccc2)C3(C)C)cc1`, the % of engagement came out at 5.4% in experiment [2] (Selectivity number of off-targets 0.0, Selectivity number of targets 233.0, Source Knowledge https://www.sciencedirect.com/science/article/pii/S2451945619300674?via%3Dihub) and 16.4% in experiment [2].
The compound `Cc1cc([C@@H](C)Nc2ccccc2C(=O)O)c2nc(N3CCOCC3)cc(=O)n2c1` [AZD-6482] displayed a % of control in [3] of 100%.
Turning to `O=C(NOC[C@H](O)CO)c1ccc(F)c(F)c1Nc1ccc(I)cc1F`, the values for the % of control in [4] and in experiment [5] were 84% and 100%, respectively.
As to `COc1cc(N(C)c2ccnc3ccc(C(F)(F)F)cc23)cc(OC)c1OC`, in experiment [6], the % binding amounted to 100%.
Consider `Nc1cnc(N2CCc3cc(S(=O)(=O)Nc4c(F)cc(Cl)cc4F)cc(N4CCCC4=O)c32)nc1` [TP-020n], for which the % of control in [7] is 100%.
Take `N#Cc1cccc(-c2c[nH]c3ncnc(N4CCOCC4)c23)c1`: the % of inhibition in [8] worked out at 21%.
For `Cc1cnc(Nc2ccc(F)cc2Cl)nc1-c1c[nH]c(C(=O)N[C@H](CO)c2cccc(Cl)c2)c1`, in experiment [9], the % of inhibition was determined as 0%.
Take `O[C@H]1CC[C@H](Nc2ncc3nc(Nc4c(F)cc(F)cc4F)n([C@H]4CCOC4)c3n2)CC1`: the % of control in experiment [10] was 100%; in [11], 92%; in experiment [12], 15%.
